Test results: patent publication US9944666B2, “Compounds that are S1P modulating agents and/or ATX modulating agents” (BIOGEN MA INC., priority 2012, dated 2018)

molecular target: T1, Human ATX protein (Homo sapiens, UniProt Q13822); experiment: ATX biochemical FRET assay with FS-3 substrate; details: FS-3 2 μM, ATX 1.0 μg/mL, room temperature 2 hours, fluorescence 485/538 nm
T1 construct: made in house
From the text: ATX (Autotaxin) is a 125 KDa glycoprotein with lysophospholipase D (LPLD) activity that generates the bioactive lipid lysophosphatidic acid (LPA) from lysophosphatidylcholine (LPC). The ATX biochemical assay utilizes a FRET (fluorescence resonance energy transfer) technology platform. The fluorescence signal of FRET substrate FS-3 is quenched due to intra-molecular FRET of a fluorophore to a non-fluorescing quencher (Ferguson, C. G., et al., Org Lett. 2006 May 11; 8(10): 2023-2026, which is incorporated by reference in its entirety). ATX catalyzes the hydrolysis of the substrate which separates the dabsyl quencher from the fluorescein reporter, which becomes fluorescent. The reaction is monitored by a SpectraMax M5 (Molecular Devices, Sunnyvale, Calif.) with at excitation wavelength 485 nm and emission wavelength […].
Fatty acid free-BSA (Sigma A8806): 10 mg/ml, in H2O, stored at 4° C.
2×ATX assay buffer: 100 mM Tris, 280 mM NaCl, 10 mM KCl, 2 mM CaCl2, 2 mM MgCl2, pH 7.4.
Human ATX protein: expressed and purified in house. Stored at −80° C.
Substrate FS-3 (Echelon, L-2000): 100 μg in 77.74 μL H2O (1 mM stock), stored at −20° C.
384-well flat bottom plates—Corning #3575.
Compound dilution—All compounds were provided at 10 mM in 100% DMSO. In the first well, 2 μL of 10 mM compound was added to 78 μL of DMSO (1:40 dilution). In subsequent wells 3-fold dilution (total 10 dilutions) were performed.
1×ATX assay buffer was made up with a final concentration of 1 mg/mL fatty acid free-BSA using 2×ATX assay buffer, 10 mg/ml fatty acid free-BSA and ddH2O.
ATX protein was diluted with 1×ATX assay buffer to a concentration of 1.32 μg/mL (1.32×). 38 μL was added per well to the assay plate. The final concentration of ATX in the reaction as 1.0 μg/mL.
2 μL per well of compounds was transferred to provide the desired concentration. The plate was centrifuged, then incubated at room temperature for 30 minutes on the shaker.
FS-3 was diluted with 1×ATX assay buffer to a concentration of FS-3 of 10 μM (5×). Then, 10 μL was added per well to the assay plate. The final concentration of FS-3 in the reaction was 2 μM. The plate was centrifuged. The plate was kept shaking at room temperature for 2 hours. Because FS-3 substrate is light sensitive, plates were kept covered and protected from light.
Fluorescence was measured using SpectraMax M5 (excitation at 485 nm/emission at 538 nm, top read).

Q: Which IC50 does the source give for `CC[C@H]1CC[C@@H](Oc2ccc3cc(CN4C5CCCC4CC(C(=O)O)C5)ccc3c2Cl)CC1` (stereo partly drawn) [Example 110, 9-((5-Chloro-6-((cis-4-ethylcyclohexyl)oxy)naphthalen-2-yl)methyl)-9-azabicyclo[3.3.1]nonane-3-carboxylic acid] here?
A: The IC50 was ≤ 100 nM.

Q: `CCC(c1ccc2c(Cl)c(O[C@H]3CC[C@@H](CC)CC3)ccc2c1)N1C2CCC1CC(C(=O)O)C2` (stereo partly drawn) [Example 236, 8-(1-(5-chloro-6-((cis-4-ethylcyclohexyl)oxy)naphthalen-2-yl)propyl)-8-azabicyclo[3.2.1]octane-3-carboxylic acid] was tested. Which IC50 did it give?
A: Its IC50 is ≤ 100 nM.

Q: With `C[C@H]1CC[C@@H](Oc2ccc3cc(CN4C5CCC4CC(C(=O)O)C5)ccc3c2C#N)CC1` (stereo partly drawn) [Example 188, 8-((5-cyano-6-((cis-4-methylcyclohexyl)oxy)naphthalen-2-yl)methyl)-8-azabicyclo[3.2.1]octane-3-carboxylic acid] as the compound, how does the IC50 read?
A: The IC50 was ≤ 500 nM.

Q: For `O=C(O)C1CC2CC(C(=O)O)CC(C1)N2Cc1ccc2c(C(F)(F)F)c(O[C@H]3CC[C@@H](C(F)(F)F)CC3)ccc2c1` (stereo partly drawn) [Example 282, (1R,3S,5S)-9-((5-(trifluoromethyl)-6-((cis-4-(trifluoromethyl)cyclohexyl)oxy)naphthalen-2-yl)methyl)-9-azabicyclo[3.3.1]nonane-3,7-dicarboxylic acid], which IC50 is on record?
A: Its IC50 is ≤ 100 nM.

Q: Which IC50 does the source give for `C[C@H]1CC[C@@H](Oc2ccc3cc(CN4C5CCCC4CC(C(=O)O)C5)ccc3c2C#N)CC1` (stereo partly drawn) [Example 207, 9-((5-cyano-6-((cis-4-methylcyclohexyl)oxy)naphthalen-2-yl)methyl)-9-azabicyclo[3.3.1]nonane-3-carboxylic acid] here?
A: The IC50 was ≤ 100 nM.

Q: Which IC50 does the source give for `CC[C@H]1CC[C@@H](Oc2ccc3cc([C@H](C)N4C5CCC4CC(C(=O)O)C5)ccc3c2C(F)(F)F)CC1` (single isomer, unassigned) [Example 290] here?
A: Its IC50 is ≤ 100 nM.

Q: For `C[C@H]1CC[C@@H](Oc2ccc3cc(C(=O)N4C5CCCC4CC(C(=O)O)C5)ccc3c2C#N)CC1` (stereo partly drawn) [Example 218, 9-(5-cyano-6-((cis-4-methylcyclohexyl)oxy)-2-naphthoyl)-9-azabicyclo[3.3.1]nonane-3-carboxylic acid], which IC50 is on record?
A: Its IC50 is ≤ 100 nM.

Q: `C[C@H]1CC[C@@H](Oc2ccc3cc(C(=O)N4C5CCCC4CC(C(=O)O)C5)ccc3c2Cl)CC1` (stereo partly drawn) [Example 208, 9-(5-chloro-6-((cis-4-methylcyclohexyl)oxy)-2-naphthoyl)-9-azabicyclo[3.3.1]nonane-3-carboxylic acid] was tested. Which IC50 did it give?
A: Its IC50 is ≤ 250 nM.

Q: For `COC(=O)C1CC2CCCC(C1)N2C(=O)c1ccc2c(C(F)(F)F)c(N[C@H]3CC[C@@H](C(F)(F)F)CC3)ccc2c1` (stereo partly drawn) [Example 244, methyl 9-(5-(trifluoromethyl)-6-((cis-4-(trifluoromethyl)cyclohexyl)amino)-2-naphthoyl)-9-azabicyclo[3.3.1]nonane-3-carboxylate], which IC50 is on record?
A: Its IC50 is ≤ 100 nM.

Q: With `CC[C@H]1CC[C@@H](Oc2ccc3nc(NC4C5CCCC4CC(C(=O)O)C5)ccc3c2C(F)(F)F)CC1` (stereo partly drawn) [Example 198, 9-((6-((cis-4-ethylcyclohexyl)oxy)-5-(trifluoromethyl)quinolin-2-yl)amino)bicyclo[3.3.1]nonane-3-carboxylic acid] as the compound, how does the IC50 read?
A: Its IC50 is ≤ 100 nM.

Q: `O=C(O)C1CC2CCCC(C1)N2Cc1cc2ccc(O[C@H]3CC[C@@H](C(F)(F)F)CC3)c(C(F)(F)F)c2cn1` (stereo partly drawn) [Example 197, 9-((8-(trifluoromethyl)-7-((cis-4-(trifluoromethyl)cyclohexyl)oxy)isoquinolin-3-yl)methyl)-9-azabicyclo[3.3.1]nonane-3-carboxylic acid] was tested. Which IC50 did it give?
A: The IC50 was ≤ 500 nM.

Q: How did the IC50 turn out when `CC(c1ccc2c(C#N)c(O[C@H]3CC[C@@H](C(F)(F)F)CC3)ccc2c1)N1C2CCCC1CC(C(=O)O)C2` (stereo partly shown) [Example 228, 9-(1-(5-cyano-6-(((1s,4s)-4-(trifluoromethyl)cyclohexyl)oxy)naphthalen-2-yl)ethyl)-9-azabicyclo[3.3.1]nonane-3-carboxylic acid] was run?
A: The IC50 was ≤ 100 nM.

Q: Which IC50 does the source give for `CC(F)(F)[C@H]1CC[C@@H](Oc2ccc3cc(CN4C5CCCC4CC(C(=O)O)C5)ccc3c2C(F)(F)F)CC1` (stereo partly drawn) [Example 209, 9-((6-((cis-4-(1,1-difluoroethyl)cyclohexyl)oxy)-5-(trifluoro-methyl)naphthalen-2-yl)methyl)-9-azabicyclo[3.3.1]nonane-3-carboxylic acid] here?
A: Its IC50 is ≤ 100 nM.

Q: With `CC[C@H]1CC[C@@H](Oc2ccc3cc([C@@H](C)N4C5CCCC4CC(C(=O)O)C5)ccc3c2Cl)CC1` (single isomer, unassigned) [Example 238] as the compound, how does the IC50 read?
A: Its IC50 is ≤ 100 nM.

Q: `O=C(O)C1CC2(C1)CN(Cc1ccc3c(C(F)(F)F)c(O[C@H]4CC[C@@H](C(F)(F)F)CC4)ccc3c1)C2` [Example 146, 2-((5-(trifluoromethyl)-6-((cis-4-(trifluoromethyl)cyclohexyl)oxy)naphthalen-2-yl)methyl)-2-azaspiro[3.3]heptane-6-carboxylic acid] was tested. Which IC50 did it give?
A: Its IC50 is ≤ 250 nM.

Q: Which IC50 does the source give for `CCC(c1ccc2c(C(F)(F)F)c(O[C@H]3CC[C@@H](CC)CC3)ccc2c1)N1C2CCC1CC(C(=O)O)C2` (relative stereo) [Example 180, 8-(1-(6-((cis-4-ethylcyclohexyl)oxy)-5-(trifluoromethyl)naphthalen-2-yl)propyl)-8-azabicyclo[3.2.1]octane-3-carboxylic acid] here?
A: The IC50 was ≤ 100 nM.

Q: Which IC50 does the source give for `O=C(O)C1CC2CCCC(C1)N2Cc1ccc2c(C(F)F)c(O[C@H]3CC[C@@H](C(F)(F)F)CC3)ccc2c1` (stereo partly drawn) [Example 100, 9-((5-(difluoromethyl)-6-((cis-4-(trifluoromethyl)cyclohexyl)oxy)naphthalene-2-yl)methyl)-9-azabicyclo[3.3.1]nonane-3-carboxylic acid] here?
A: The IC50 was ≤ 100 nM.

Q: With `CC(c1ccc2c(Cl)c(O[C@H]3CC[C@@H](C(F)(F)F)CC3)ccc2c1)N1C2CCCC1CC(C(=O)O)C2` (stereo partly drawn) [Example 235, 9-(1-(5-chloro-6-((cis-4-(trifluoromethyl)cyclohexyl)oxy)naphthalen-2-yl)ethyl)-9-azabicyclo[3.3.1]nonane-3-carboxylic acid] as the compound, how does the IC50 read?
A: The IC50 was ≤ 100 nM.

Q: `O=C(O)C12CCC(NCc3ccc4c(C(F)(F)F)c(OC5CCC(C(F)(F)F)CC5)ccc4c3)(CC1)CC2` (stereo not shown) [Example 144, 3-(4-{[5-trifluoromethyl-6-(4-trifluoromethyl-cyclohexyloxy)-naphthalen-2-ylmethyl]-amino}-bicyclo[2.2.2]oct-1-yl)-carboxylic acid] was tested. Which IC50 did it give?
A: Its IC50 is ≤ 500 nM.

Q: `CC(C)(C)[C@H]1CC[C@H](Nc2ncc3cc(C(=O)N4C5CCC4CC(C(=O)O)C5)ccc3n2)CC1` (stereo partly drawn) [Example 262, 8-(2-((trans-4-(tert-butyl)cyclohexyl)amino)quinazoline-6-carbonyl)-8-azabicyclo[3.2.1]octane-3-carboxylic acid] was tested. Which IC50 did it give?
A: Its IC50 is ≤ 100 nM.

Q: For `CC(c1ccc2c(C(F)(F)F)c(O[C@H]3CC[C@@H](C(F)(F)F)CC3)ccc2n1)N1C2CCC1CC(C(=O)O)C2` (stereo partly drawn) [Example 102, 8-(1-(5-(trifluoromethyl)-6-((cis-4-(trifluoromethyl)cyclohexyl)oxy)quinolin-2-yl)ethyl)-8-azabicyclo[3.2.1]octane-3-carboxylic acid], which IC50 is on record?
A: The IC50 was ≤ 100 nM.

Q: How did the IC50 turn out when `CCC(c1ccc2c(C(F)(F)F)c(O[C@H]3CC[C@@H](C)CC3)ccc2c1)N1C2CCCC1CC(C(=O)O)C2` (relative stereo) [Example 128, 9-(1-(6-((cis-4-Methylcyclohexyl)oxy)-5-(trifluoromethyl)naphthalen-2-yl)propyl)-9-azabicyclo[3.3.1]nonane-3-carboxylic acid] was run?
A: The IC50 was ≤ 100 nM.
